Positions of bridges follow the written chain, without caps; N, C: chain ends. Non-standard residues stand in square brackets, D forms with d. Residues, ends and D or L forms follow the SMILES beside them. *: point of attachment. hPhe(3-Cl-4-CF3) = N[C@@H](CCc1ccc(C(F)(F)F)c(Cl)c1)C(=O)O; hPhe(4-CF3) = N[C@@H](CCc1ccc(C(F)(F)F)cc1)C(=O)O; NMePhe(4-Cl) = CN[C@@H](Cc1ccc(Cl)cc1)C(=O)O; NMePhe(4-F) = CN[C@@H](Cc1ccc(F)cc1)C(=O)O; Phe(3-Cl) = N[C@@H](Cc1cccc(Cl)c1)C(=O)O; NMeGly(cPent) = CN[C@H](C(=O)O)C1CCCC1; Phe(3-I) = N[C@@H](Cc1cccc(I)c1)C(=O)O; Phe(3-Me) = Cc1cccc(C[C@H](N)C(=O)O)c1; NMeY = CN[C@@H](Cc1ccc(O)cc1)C(=O)O; NMeCha = CN[C@@H](CC1CCCCC1)C(=O)O; NMehLeu = CN[C@@H](CCC(C)C)C(=O)O; NMeChg = CN[C@H](C(=O)O)C1CCCCC1; NMeF = CN[C@@H](Cc1ccccc1)C(=O)O; NMeD = CN[C@@H](CC(=O)O)C(=O)O; NMeL = CN[C@@H](CC(C)C)C(=O)O; NMeV = CN[C@H](C(=O)O)C(C)C; d(β3hA) = C[C@@H](N)CC(=O)O; NMeS = CN[C@@H](CO)C(=O)O; NMeA = CN[C@@H](C)C(=O)O; Piperidide = C1CCN(*)CC1; Pyrrolidide = C1CCN(*)C1; dNMeA = CN[C@H](C)C(=O)O; Ac5c = NC1(C(=O)O)CCCC1; Aze = O=C(O)[C@@H]1CCN1; CH2CMe2OH = CC(C)(O)C*; Cyclobutyl = C1CC(*)C1; βAla = NCCC(=O)O; Sar = CNCC(=O)O

As usually defined, the IC50 is the midpoint of a concentration-inhibition curve.

For this assay, the target named is T1, Kras and SOS1 (biotin-tagged human Kras loaded with GDP, His-tagged human SOS1) (Homo sapiens, UniProt P01116, G12D).
T1 construct: made in house; host or cells: E. coli (stated for Kras only)
T1 sequence (P01116 1-188 isoform P01116-2 G12D): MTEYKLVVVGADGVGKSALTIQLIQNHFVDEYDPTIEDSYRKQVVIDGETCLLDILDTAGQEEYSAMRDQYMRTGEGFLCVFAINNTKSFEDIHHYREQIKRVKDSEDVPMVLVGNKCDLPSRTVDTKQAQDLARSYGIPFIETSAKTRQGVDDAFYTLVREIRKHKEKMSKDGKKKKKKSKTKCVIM
Description: Protein-protein interaction inhibition between Kras and SOS1 (KrasGl2D-SOS PPI) using AlphaScreen. It counts as binding. The following applies: AlphaScreen; biotin-tagged human Kras loaded with GDP, His-tagged human SOS1; read-out: KRAS G12D-SOS PPI IC50. In short, it runs like this:
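AlphaScreen format: Ni donor beads capture His-SOS1, streptavidin acceptor beads capture biotinylated Kras (E. coli-expressed, GDP-loaded post-purification). Excite 680 nm, read 520-620 nm.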
In general terms: In Alpha technology, singlet oxygen from a donor bead excites a nearby acceptor bead.
Turning to `CC[C@H](C)[C@@H]1NC(=O)[C@H](C)N(C)C(=O)C[C@@H](C(=O)N2CCCC2)NC(=O)[C@H](CC(C)C)N(C)C(=O)[C@H](COCC(C)(C)O)N(C)C(=O)[C@H](CC(C)C)NC(=O)[C@H](CCc2ccc(C(F)(F)F)cc2)NC(=O)CN(C)C(=O)[C@H](Cc2ccc(Cl)cc2)N(C)C(=O)CN(C)C(=O)CN(C)C1=O` [Compound 582] ([NMeA]I[Sar][Sar][NMePhe(4-Cl)][Sar][hPhe(4-CF3)]L[NMeS](CH2CMe2OH)[NMeL]D-Pyrrolidide; lactam N-11), the IC50 is 24 nM. The value for `CC[C@H](C)[C@@H]1NC(=O)[C@H](C)N(C)C(=O)C[C@@H](C)NC(=O)[C@H](C2CCCC2)N(C)C(=O)C2(CCCC2)NC(=O)[C@@H]2CCCN2C(=O)[C@H](CCc2ccc(C(F)(F)F)c(Cl)c2)NC(=O)[C@@H](C)N(C)C(=O)[C@H](Cc2ccc(F)cc2)N(C)C(=O)[C@@H]2CCN2C(=O)[C@H](C)N(C)C1=O` [Compound 584] (cyclo([Ac5c][NMeGly(cPent)][d(β3hA)][NMeA]I[NMeA][Aze][NMePhe(4-F)][dNMeA][hPhe(3-Cl-4-CF3)]P)) was 31 nM; that for `CC[C@H](C)[C@@H]1NC(=O)[C@H](CC(C)C)N(C)C(=O)C[C@@H](C(=O)N2CCCCC2)N(C)C(=O)[C@H](COC2CCC2)N(C)C(=O)C2(CCCC2)NC(=O)[C@@H]2CCCN2C(=O)[C@H](CCc2ccc(C(F)(F)F)c(Cl)c2)NC(=O)CN(C)C(=O)[C@H](CC2CCCCC2)N(C)C(=O)CN(C)C(=O)CN(C)C1=O` [Compound 585] ([NMeL]I[Sar][Sar][NMeCha][Sar][hPhe(3-Cl-4-CF3)]P[Ac5c][NMeS](Cyclobutyl)[NMeD]-Piperidide; lactam N-11) was 94 nM; that for `CC[C@H](C)[C@@H]1NC(=O)[C@H](CC(C)C)N(C)C(=O)C[C@@H](C)NC(=O)[C@H](CCC(C)C)N(C)C(=O)C2(CCCC2)NC(=O)[C@@H]2CCCN2C(=O)[C@H](CCc2ccc(C(F)(F)F)c(Cl)c2)NC(=O)CN(C)C(=O)[C@H](CC2CCCCC2)N(C)C(=O)CN(C)C(=O)CN(C)C1=O` [Compound 586] (cyclo([Ac5c][NMehLeu][d(β3hA)][NMeL]I[Sar][Sar][NMeCha][Sar][hPhe(3-Cl-4-CF3)]P)) was 160 nM. For `CC[C@H](C)[C@@H]1NC(=O)[C@H](CC(C)C)N(C)C(=O)C[C@@H](C(=O)N2CCCCC2)N(C)C(=O)[C@H](C2CCCCC2)N(C)C(=O)[C@H](C)NC(=O)[C@@H]2CCCN2C(=O)[C@H](CCc2ccc(C(F)(F)F)c(Cl)c2)NC(=O)CN(C)C(=O)[C@H](CC2CCCCC2)N(C)C(=O)CN(C)C(=O)CN(C)C1=O` [Compound 591] ([NMeL]I[Sar][Sar][NMeCha][Sar][hPhe(3-Cl-4-CF3)]PA[NMeChg][NMeD]-Piperidide; lactam N-11) the value was 2.1 nM; for `CC[C@H](C)[C@@H]1NC(=O)[C@H](CC(C)C)N(C)C(=O)C[C@@H](C)NC(=O)[C@H](C2CCCCC2)N(C)C(=O)C2(CCCC2)NC(=O)[C@@H]2CCCN2C(=O)[C@H](CCc2ccc(C(F)(F)F)c(Cl)c2)NC(=O)CN(C)C(=O)[C@H](CC2CCCCC2)N(C)C(=O)CN(C)C(=O)CN(C)C1=O` [Compound 593] (cyclo([Ac5c][NMeChg][d(β3hA)][NMeL]I[Sar][Sar][NMeCha][Sar][hPhe(3-Cl-4-CF3)]P)), 34 nM. For `CC[C@H](C)[C@@H]1NC(=O)[C@H](C)N(C)C(=O)C[C@@H](C(=O)N2CCCC2)N(C)C(=O)[C@H](CC(C)C)NC(=O)[C@H](Cc2ccccc2)N(C)C(=O)[C@H](C)NC(=O)[C@H](Cc2cccc(I)c2)NC(=O)CN(C)C(=O)[C@H](Cc2ccc(OC)cc2)N(C)C(=O)[C@@H]2CCN2C(=O)[C@H](C)N(C)C1=O` [Compound 604] ([NMeA]I[NMeA][Aze][NMeY](Me)[Sar][Phe(3-I)]A[NMeF]L[NMeD]-Pyrrolidide; lactam N-11) the value was 16 nM.

For the compound `CC[C@H](C)[C@@H]1NC(=O)CCNC(=O)[C@H](COCC(C)(C)O)N(C)C(=O)[C@H](C2CCCCC2)N(C)C(=O)C2(CCCC2)NC(=O)[C@@H]2CCCN2C(=O)[C@H](CCc2ccc(C(F)(F)F)c(Cl)c2)NC(=O)CN(C)C(=O)[C@H](CC2CCCCC2)N(C)C(=O)CN(C)C(=O)CN(C)C1=O` [Compound 605] (cyclo([Ac5c][NMeChg][NMeS](CH2CMe2OH)[βAla]I[Sar][Sar][NMeCha][Sar][hPhe(3-Cl-4-CF3)]P)), the IC50 amounted to 9 nM. The value for `CC[C@H](C)[C@@H]1NC(=O)[C@H](C)N(C)C(=O)C[C@@H](C(=O)N2CCCC2)NC(=O)[C@H](C(C)C)N(C)C(=O)[C@H](Cc2ccccc2)N(C)C(=O)[C@H](Cc2cccc(C)c2)NC(=O)[C@H](Cc2cccc(Cl)c2)NC(=O)CN(C)C(=O)[C@H](Cc2ccc(Cl)cc2)N(C)C(=O)CN(C)C(=O)CN(C)C1=O` [Compound 609] ([NMeA]I[Sar][Sar][NMePhe(4-Cl)][Sar][Phe(3-Cl)][Phe(3-Me)][NMeF][NMeV]D-Pyrrolidide; lactam N-11) was 110 nM.

(Values after patent US12371454B2, “Cyclic peptide compound having Kras inhibitory action” (priority 2019, dated 2025).)
